In US9314464B2, “Compounds and compositions as protein kinase inhibitors” (Novartis AG, priority 2009, dated 2016):

Columns and labels:
[1] = In Vivo Pharmacokinetics Assay in mouse; conditions: for bioavailability at 24 h: 10 mg/kg, PO/IV 10/2 mg/kg; for clearance at 24 h: IV 2 mg/kg
Procedure: (§1) Full pharmacokinetics study: Male Balb/c mice (n=3, body weights 22-25 g) or male Wistar rats (n=3, body weights 250-300 g) were administered the test compound intravenously via the lateral tail vein or orally via gavage. The formulation was typically a 2.5 mg/mL solution of the compound in 75% PEG300 and 25% D5W. Six blood samples of 50 μL each were collected serially for 24 h after dosing. The blood samples were centrifuged to separate the plasma. Plasma samples were analyzed and quantified by LC-MS/MS.
as §1, with “Rapid” for “Full”, “intravenously (IV)” for “intravenously”, “orally (PO)” for “orally”, “Blood” for “The blood”, “and plasma separated and pooled across” for “to separate”, “three animals at each time point per dose route.” for “plasma.”
For both full and rapid pharmacokinetics studies, the following parameters were calculated by non-compartmental regression analysis using Winnonlin 5.0 software (Pharsight, Mountain View, Calif., USA): plasma clearance (Cl), plasma maximum concentration (Cmax), plasma area-under-the-concentration-time-curve (AUC0-inf), and percent oral bioavailability (F %).

[2] = Liver Microsomal Clearance Assay, mouse; format: in vitro ADME; conditions: extraction ratio, mouse liver microsomes
Procedure: (§2) Liver Microsomal Clearance Assay
(§3) The in vitro microsomal clearance assay is designed to assess potential risks associated with hepatic metabolic stability of compounds. The test compound (1 μM) was incubated with liver microsomes (0.5 mg/mL) from different species (mouse, rat, monkey, dog and human) and NADPH (1 mM) in 100 mM potassium phosphate buffer at 37° C. At specific reaction time points (0, 5, 10 and 30 minutes), reaction aliquots were removed and reactions were terminated by addition of ice cold acetonitrile containing mass spectrometry internal standard. The samples were centrifuged and the supernatants were analyzed by LC-MS/MS. In vitro metabolic half-life (t1/2, min) and intrinsic clearance (CLint, μL/min/mg) are based on the rate and extent of metabolism of the test compound as determined by the disappearance of the parent compound from the reaction mixture. These values may be scaled to predict hepatic metabolic clearance rate (CLh, mL/min/kg) and extraction ratio (ER, expressed as a ratio of the predicted hepatic metabolic clearance to hepatic blood flow in that species). In general, compounds with high predicted CLint or ER in vitro are considered to be at high risk for exposure-limiting metabolism in vivo.

B-Raf V600E = B-Raf V600E (Homo sapiens (Human), UniProt P15056, V600E); assay: B-Raf V600E/Mek Amplified Luminescence Proximity Homogeneous Assay (B-Raf V600E biochemical); conditions: read-out: BRAF V600E biochemical IC50
B-Raf V600E, sequence (P15056 whole entry V600E): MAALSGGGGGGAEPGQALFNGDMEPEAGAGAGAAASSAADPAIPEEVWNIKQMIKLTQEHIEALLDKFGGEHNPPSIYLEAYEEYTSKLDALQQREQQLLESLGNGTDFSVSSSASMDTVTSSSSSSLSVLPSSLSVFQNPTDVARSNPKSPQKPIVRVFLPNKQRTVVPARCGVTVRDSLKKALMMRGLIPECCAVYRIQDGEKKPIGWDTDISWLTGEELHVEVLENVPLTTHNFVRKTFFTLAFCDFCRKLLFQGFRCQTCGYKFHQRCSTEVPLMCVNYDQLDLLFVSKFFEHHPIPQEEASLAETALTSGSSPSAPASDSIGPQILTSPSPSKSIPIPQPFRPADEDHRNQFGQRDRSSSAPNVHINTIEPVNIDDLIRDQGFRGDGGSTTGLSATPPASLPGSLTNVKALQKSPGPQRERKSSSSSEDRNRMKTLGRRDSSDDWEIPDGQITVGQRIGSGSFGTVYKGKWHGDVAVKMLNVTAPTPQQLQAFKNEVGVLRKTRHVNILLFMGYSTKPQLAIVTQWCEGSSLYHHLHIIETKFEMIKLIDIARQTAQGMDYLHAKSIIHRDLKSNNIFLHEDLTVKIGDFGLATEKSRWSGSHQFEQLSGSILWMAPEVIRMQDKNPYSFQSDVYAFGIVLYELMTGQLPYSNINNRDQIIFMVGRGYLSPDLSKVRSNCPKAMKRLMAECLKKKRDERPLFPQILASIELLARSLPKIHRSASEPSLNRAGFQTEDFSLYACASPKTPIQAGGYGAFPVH
Procedure: The plate was incubated for 60 minutes at room temperature.
The B-Raf kinase activity reaction was started by the addition of 10 μl per well of 2×ATP (10 μM) diluted in assay buffer. After 3 hours, the reactions were stopped with the addition of 10 μl of stop reagent (60 mM EDTA, 0.01% Tween20). Phosphorylated product was measured using a rabbit anti-p-MEK (Cell Signaling, #9121) antibody and the Alpha Screen IgG (ProteinA) detection Kit (PerkinElmer #6760617R), by the addition of 30 μl to the well of a mixture of the antibody (1:2000 dilution) and detection beads (1:1000 dilution of both beads) in bead buffer (50 mM Tris, pH 7.5, 0.01% Tween20). The additions were carried out under dark conditions to protect the detection beads from light. A lid was placed on top of the plate and the plate was incubated for 1 hour at room temperature. The luminescence was read on a PerkinElmer Envision instrument. The concentration of each compound for 50% inhibition (IC50) was calculated by non-linear regression using XL Fit data analysis software.

[3] = Liver Microsomal Clearance Assay, human; format: in vitro ADME; conditions: extraction ratio, human liver microsomes
Procedure: as §2, §3

SW620 cells = assay: SW620 Cell Viability Assay (Cell Titer Glo); format: cell-based; conditions: FIG. 1, compound alone
Procedure: The present invention also includes combinations of the BRaf inhibitors disclosed in this invention with other agents. In particular, the present invention provides for combinations with MEK1/2 inhibitors. FIG. 1 illustrates that the addition of a MEK small molecule inhibitor can reverse the induced ERK signaling, cell growth and transformation caused by a Raf small molecule inhibitor.
SW620 cells were seeded in 1640 RPMI+10% FBS at a density of 1500 cells per 96-well in black walled, clear bottom tissue culture treated plates. Test compounds were serially diluted in DMSO then added to the cells (final DMSO concentration of 0.1%) and incubated at 37° C. and 5% CO2 for 4 days. To measure cell viability, cell plates were brought to room temperature, culture media was removed, and 200 μl of Cell Titer-Glo reagent (Promega, kit components mixed as per the manufacturer's protocol then diluted 1:2 with growth media) was added to each well. Plates were shaken for 5 minutes, then incubated at room temperature for 5 minutes, and the luminescence was measured (Trilux, Perkin Elmer).

A375 cells = assay: In Vivo Efficacy - 14 Day A375 Mouse Xenograft Model
Procedure: A375 cells were grown in sterile conditions in a 37° C. incubator with 5% CO2 for two to four weeks. The cells were cultured in RPMI-1640 media supplemented with 10% FBS. Cells were passaged twice weekly with 0.05% Trypsin/EDTA. On the day of implant, cells were harvested in HBSS (Hank's Balanced Salt Solution). Female Nu/Nu mice (Charles River, 10-11 weeks at start of study) were implanted with 5×10^6 A375 cells/mouse in 50% matrigel, 0.2 mL SQ right flank on day 1. At 19 days post-implant, mice were randomized into 6 groups (9 mice per group), with an average tumor volume of 215 mm^3 and average body weight of 24 g. Test compound was dosed BID for 14 days commencing on day 19 using a dosing volume 0.2 mL per dose, with compound formulated at the appropriate concentration to attain the desired dose level. Clinical observations were made daily. Tumor volume and body weight were measured twice weekly.
Tumor volume results were assessed at 14 days post-first dose. Partial response is defined as having tumor growth 20-50% of control tumor growth. Stable disease is defined as having final tumor volume within +/−20% of initial tumor size. Partial regression is defined as having final tumor volume<80% of initial tumor volume.

[4] = male, Balb/c, plasma, PO 10 mg/kg

CCCS(=O)(=O)Nc1ccc(F)c(-c2nn(C(C)C)cc2-c2ccnc(NC[C@H](C)NC(=O)OC)n2)c1F [Compound 7, Methyl N-[(2S)-1-[(4-{3-[2,6-difluoro-3-(propane-1-sulfonamido)phenyl]-1-(propan-2-yl)-1H-pyrazol-4-yl}pyrimidin-2-yl)amino]propan-2-yl]carbamate]
bioavailability at 24 h ([1]; male, Balb/c, plasma): 8 ± 7%
clearance at 24 h ([1]; male, Balb/c, plasma): 99 ± 13 mL/min/kg
AUC at 24 h [1, 4]: 0.24 ± 0.21 µM·h
Cmax at 24 h [1, 4]: 0.15 ± 0.07 µM
ER Mouse [2]: 0.91
IC50 (B-Raf V600E): 0.7 nM
ER Human [3]: 0.65

COC(=O)N[C@@H](C)CNc1nccc(-c2cn(C(C)C)nc2-c2cc(Cl)cc(NS(C)(=O)=O)c2F)n1 [Compound 9, Methyl N-[(2S)-1-({4-[3-(5-chloro-2-fluoro-3-methanesulfonamidophenyl)-1-(propan-2-yl)-1H-pyrazol-4-yl]pyrimidin-2-yl}amino)propan-2-yl]carbamate]
cellular proliferation in Cell Titer Glo assay (SW620 cells): induction in cellular proliferation
PO AUC ([1]; PO 10 mg/kg): 30 ± 4 µM·h
bioavailability at 24 h ([1]; male, Balb/c, plasma): 43 ± 6%
clearance at 24 h ([1]; male, Balb/c, plasma): 4.3 ± 0.4 mL/min/kg
Cmax at 24 h [1, 4]: 27 ± 4 µM
AUC ([1]; male, Balb/c, plasma, oral dose of 10 mg/kg): 30 ± 4 µM·h
Tumor volume result (A375 cells; 1 mg/kg bid×14, 14 days post-first dose): partial response (Partial response is defined as having tumor growth 20-50% of control tumor growth)
Tumor volume result (A375 cells; 3 mg/kg bid×14, 14 days post-first dose): stable disease (Stable disease is defined as having final tumor volume within +/−20% of initial tumor size)
Tumor volume result (A375 cells; 10 mg/kg bid×14, 14 days post-first dose): partial regression (Partial regression is defined as having final tumor volume<80% of initial tumor volume)
Tumor volume result (A375 cells; 20 mg/kg bid×14, 14 days post-first dose): partial regression (Partial regression is defined as having final tumor volume<80% of initial tumor volume)
ER Mouse [2]: 0.48
ER Human [3]: <0.21
